Key:
[1] = tested on: influenza A/California/07/2009 (H1N1), influenza A/PR/8/1934 (H1N1), influenza A/Vietnam/1194/2004 (H5N1); assay: microbe, parasite or virus in culture; assay type: cell-based, influenza A virus; conditions: for IC50: Influenza A virus, MDCK, 50 h
[2] = tested on: influenza A/PuertoRico/1934 (H1N1); assay: Protection of mice against lethal influenza H1N1 challenge; assay type: in vivo, BALB/c mice; conditions: 5×LD50 influenza A/PuertoRico/1934 (H1N1) day 0; 25 mg/kg orally once daily day 1 to day 7
SARS-CoV-2 [3] = assay: Protection of mice against lethal SARS-CoV-2 challenge; assay type: in vivo, F1 mice of BALB/c/C57BL6 mice; conditions: 5×LD50 SARS-CoV-2 day 0; 25 mg/kg orally once daily day 1 to day 7
SARS-CoV-2 [4] = assay type: cell-based

| SMILES | IC50 [1] [µM] | further results |
| --- | --- | --- |
| CCc1cc2c(cc1N1CCC(N3CCOCC3)CC1)C(C)(C)c1[nH]c3cc(C#N)ccc3c1C2=O [alectinib, 9-ethyl-6,6-dimethyl-8-(4-morpholin-4-ylpiperidin-1-yl)-11-oxo-5H-benzo[b]carbazole-3-carbonitrile] | 1 to 4 | – |
| COc1cc(N2CCC(N3CCN(C)CC3)CC2)ccc1Nc1ncc(Cl)c(Nc2ccccc2P(C)(C)=O)n1 [brigatinib, 5-chloro-4-N-(2-dimethylphosphorylphenyl)-2-N-[2-methoxy-4-[4-(4-methylpiperazin-1-yl)piperidin-1-yl]phenyl]pyrimidine-2,4-diamine] | 1 to 4 | survival of mice [2]: 12.5% |
| Cc1cc(Nc2ncc(Cl)c(Nc3ccccc3S(=O)(=O)C(C)C)n2)c(OC(C)C)cc1C1CCNCC1 [ceritinib, 5-chloro-2-N-(5-methyl-4-piperidin-4-yl-2-propan-2-yloxyphenyl)-4-N-(2-propan-2-ylsulfonylphenyl)pyrimidine-2,4-diamine] | 0.1 to 1 | survival of mice (SARS-CoV-2 [3]): 29% |
| C[C@@H](Oc1cc(-c2cnn(C3CCNCC3)c2)cnc1N)c1c(Cl)ccc(F)c1Cl [crizotinib, 3-[(1R)-1-(2,6-dichloro-3-fluorophenyl)ethoxy]-5-(1-piperidin-4-ylpyrazol-4-yl)pyridin-2-amine] | 1 to 4 | survival of mice [2]: 38% |
| C[C@@H]1CN(C(=O)c2ccc(NC(=O)c3cc(O[C@H](C)c4c(Cl)ccc(F)c4Cl)c(N)nn3)cc2)C[C@H](C)N1 [ensartinib, 6-amino-5-[(1R)-1-(2,6-dichloro-3-fluorophenyl)ethoxy]-N-[4-[(3R,5S)-3,5-dimethylpiperazine-1-carbonyl]phenyl]pyridazine-3-carboxamide] | 1 to 4 | – |
| CN1CCN(c2ccc(C(=O)Nc3n[nH]c4ccc(Cc5cc(F)cc(F)c5)cc34)c(NC3CCOCC3)c2)CC1 [entrectinib, N-[5-[(3,5-difluorophenyl)methyl]-1H-indazol-3-yl]-4-(4-methylpiperazin-1-yl)-2-(oxan-4-ylamino)benzamide] | 1 to 4 | – |
| C[C@H]1Oc2cc(cnc2N)-c2c(nn(C)c2C#N)CN(C)C(=O)c2ccc(F)cc21 [lorlatinib] | – | virus assembly/secretion (viral OD, viral titres) [1]: viral titres remain high for all doses tested; inhibition of SARS-CoV-2 (SARS-CoV-2 [4]): but not lorlatinib, inhibited SARS-CoV-2 |

— patent US20240009213A1, “TREATMENT FOR VIRAL INFECTION” (priority 2020, published 2024)
